Usually IC50 stands for the point on the concentration scale where inhibition reaches its midpoint.

Chain of SAE1 (Q9UBE0 whole entry): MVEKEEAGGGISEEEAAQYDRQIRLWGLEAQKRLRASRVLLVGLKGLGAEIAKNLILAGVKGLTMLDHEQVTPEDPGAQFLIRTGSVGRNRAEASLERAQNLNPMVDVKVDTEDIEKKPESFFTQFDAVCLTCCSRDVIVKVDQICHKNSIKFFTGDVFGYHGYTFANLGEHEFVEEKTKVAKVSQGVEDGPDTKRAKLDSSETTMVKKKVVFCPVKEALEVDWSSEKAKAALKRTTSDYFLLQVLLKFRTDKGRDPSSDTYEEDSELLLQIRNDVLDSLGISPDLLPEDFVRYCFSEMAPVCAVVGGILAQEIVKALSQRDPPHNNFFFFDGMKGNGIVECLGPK
Chain of SAE1 (Q9UBT2 whole entry): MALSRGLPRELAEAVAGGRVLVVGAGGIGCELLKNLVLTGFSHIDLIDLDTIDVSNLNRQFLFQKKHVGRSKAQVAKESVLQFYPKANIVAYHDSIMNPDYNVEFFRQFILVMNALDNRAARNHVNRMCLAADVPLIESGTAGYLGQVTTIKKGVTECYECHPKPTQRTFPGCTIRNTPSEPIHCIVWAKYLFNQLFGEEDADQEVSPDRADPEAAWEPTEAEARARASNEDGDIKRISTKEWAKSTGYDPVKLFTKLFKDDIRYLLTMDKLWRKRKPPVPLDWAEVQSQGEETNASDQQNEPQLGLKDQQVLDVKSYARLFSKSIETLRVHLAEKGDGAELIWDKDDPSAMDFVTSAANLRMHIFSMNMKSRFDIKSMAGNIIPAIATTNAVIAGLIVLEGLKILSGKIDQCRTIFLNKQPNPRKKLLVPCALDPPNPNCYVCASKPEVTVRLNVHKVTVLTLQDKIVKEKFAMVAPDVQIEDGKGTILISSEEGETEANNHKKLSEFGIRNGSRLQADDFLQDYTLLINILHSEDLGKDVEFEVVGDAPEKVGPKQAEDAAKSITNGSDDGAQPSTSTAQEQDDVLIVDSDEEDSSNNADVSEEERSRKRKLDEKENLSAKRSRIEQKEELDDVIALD

In this assay the target is SAE1 (Homo sapiens (Human), UniProt Q9UBE0+Q9UBT2). Kind of assay: SAE High Throughput Biochemical Assay (HTRF), 15 min preincubation. The settings on record: read-out: 15 min preincubation HTRF IC50 (μM) Ave, SAE1 12.5 nM, ATP 100 μM. The procedure, abridged:
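HTRF detection of SUMO transfer from SUMO-GST to UBC9-His (40 nM each) by SAE1 at 12.5 nM used 100 μM ATP in pH 7.5 HEPES buffer with 10 mM MgCl2 and 0.1% BSA. Enzyme and compound were preincubated 15 min at RT and the reaction ran 45 min, with readings after 2 h and overnight.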
On the technique in general: TR-FRET usually uses a lanthanide donor and a delayed reading to cut background.
`CCn1cc(-c2cccc(O)c2C2CN(C(=O)/C=C/CN(C)C)Cc3sc(C#N)cc32)c(C(F)(F)F)n1` (stereo not drawn) [Example 204, (E)-6-(4-(Dimethylamino)but-2-enoyl)-4-(2-(1-ethyl-3-(trifluoromethyl)-1 H-pyrazol-4-yl)-6-hydroxyphenyl)-4,5,6,7-tetrahydrothieno[2,3-c]pyridine-2-carbonitrile]: the IC50 is over 25 µM. For the molecule `CCn1cc(-c2ccccc2[C@@H]2CN(C(=O)C#CC3(N)CCC3)Cc3sc(C#N)cc32)c(C(F)(F)F)n1` [Example 137, (S)-6-(3-(1-Aminocyclobutyl)propioloyl)-4-(2-(1-ethyl-3-(trifluoromethyl)-1 H pyrazol-4-yl)phenyl)-4,5,6,7-tetrahydrothieno[2,3-c]pyridine-2-carbonitrile], the IC50 amounted to 0.36 µM. Turning to `CN(C)C/C=C/C(=O)N1Cc2sc(C#N)cc2[C@H](c2ccccc2-c2cn(Cc3ncno3)nc2C(F)(F)F)C1` [Example 166, (S,E)-4-(2-(1-((1,2,4-Oxadiazol-5-yl)methyl)-3-(trifluoromethyl)-1H pyrazol-4-yl)phenyl)-6-(4-(dimethylamino)but-2-enoyl)-4,5,6,7-tetrahydrothieno[2,3-c]pyridine-2-carbonitrile], the concentration for half-maximal inhibition (IC50) is 19.9 µM. The same measure for `CN(C)C/C=C/C(=O)N1Cc2sc(C#N)cc2C(c2ccccc2-c2c[nH]nc2C(F)(F)F)C1` (stereo not drawn) [Example 152, (E)-6-(4-(Dimethylamino)but-2-enoyl)-4-(2-(3-(trifluoromethyl)-1H-pyrazol-4-yl)phenyl)-4,5,6,7-tetrahydrothieno[2,3-c]pyridine-2-carbonitrile]: 10.4 µM; for `CCn1cc(-c2ccccc2[C@@H]2CN(C(=O)C#CCN3CCN(C)CC3)Cc3sc(C#N)cc32)c(C(F)(F)F)n1` [Example 143, (S)-4-(2-(1-Ethyl-3-(trifluoromethyl)-1 H pyrazol-4-yl)phenyl)-6-(4-(4-methylpiperazin-1-yl)but-2-ynoyl)-4,5,6,7-tetrahydrothieno[2,3-c]pyridine-2-carbonitrile]: 2.18 µM.

Turning to `C=CC(=O)N1Cc2sc(C#N)cc2C(c2ccc(N)cc2-c2cn(CC)nc2C(F)(F)F)C1` (stereo not drawn) [Compound 228], the IC50 is 2.07 µM. The same measure for `CCn1cc(-c2ccccc2[C@@H]2CN(C(=O)/C=C/CN(C)C)Cc3sc(C#N)cc32)c(C(C)(F)F)n1` [Example 10, (S, E)-4-(2-(3-(1,1-difluoroethyl)-1-ethyl-1H-pyrazol-4-yl)phenyl)-6-(4-(dimethylamino)but-2-enoyl)-4,5,6,7-tetrahydrothieno[2,3-c]pyridine-2-carbonitrile]: 13.4 µM. The same measure for `CCn1cc(-c2ccccc2[C@@H]2CN(C(=O)/C=C/C(C)NC)Cc3sc(C#N)cc32)c(C(F)(F)F)n1` (stereo partly drawn) [Example 77, (4S)-4-(2-(1-Ethyl-3-(trifluoromethyl)-1 H pyrazol-4-yl)phenyl)-6-((E)-4-(methylamino)pent-2-enoyl)-4,5,6,7-tetrahydrothieno[2,3-c]pyridine-2-carbonitrile]: 9.55 µM; for `CCn1cc(-c2ccccc2[C@@H]2CN(C(=O)/C=C/[C@@H](COC)NC)Cc3sc(C#N)cc32)c(C(F)(F)F)n1` [Example 85, (S)-4-(2-(1-Ethyl-3-(trifluoromethyl)-1 H-pyrazol-4-yl)phenyl)-6-((S, E)-5-methoxy-4-(methylamino)pent-2-enoyl)-4,5,6,7-tetrahydrothieno[2,3-c]pyridine-2-carbonitrile]: over 25 µM; for `CN(C)C/C=C/C(=O)N1Cc2sc(C#N)cc2[C@H](c2ccccc2-c2cn(CC(F)F)nc2C(F)(F)F)C1` [Example 18, (S,E)-4-(2-(1-(2,2-difluoroethyl)-3-(trifluoromethyl)-1 H-pyrazol-4-yl)phenyl)-6-(4-(dimethylamino)but-2-enoyl)-4,5,6,7-tetrahydrothieno[2,3-c]pyridine-2-carbonitrile]: 8.99 µM. `CCn1cc(-c2cc(Cl)ccc2C2CN(C(=O)/C=C/CN(C)C)Cc3sc(C#N)cc32)c(C(F)(F)F)n1` (stereo not drawn) [Example 212, (E)-4-(4-Chloro-2-(1-ethyl-3-(trifluoromethyl)-1 H-pyrazol-4-yl)phenyl)-6-(4-(dimethylamino)but-2-enoyl)-4,5,6,7-tetrahydrothieno[2,3-c]pyridine-2-carbonitrile]: the IC50 was 11.7 µM. The same measure for `CCn1cc(-c2ccc(N)cc2C2CN(C(=O)/C=C/CN(C)C)Cc3sc(C#N)cc32)c(C(F)(F)F)n1` (stereo not drawn) [Example 196, (E)-4-(5-Amino-2-(1-ethyl-3-(trifluoromethyl)-1 H-pyrazol-4-yl)phenyl)-6-(4-(dimethylamino)but-2-enoyl)-4,5,6,7-tetrahydrothieno[2,3-c]pyridine-2-carbonitrile]: over 25 µM; for `CN[C@@H](C)/C=C/C(=O)N1Cc2sc(C#N)c(C)c2[C@H](c2cccc(F)c2-c2cn(C)nc2C(F)(F)F)C1` [Example 219, (S)-4-(3-fluoro-2-(1-methyl-3-(trifluoromethyl)-1 H-pyrazol-4-yl)phenyl)-3-methyl-6-((S, E)-4-(methylamino)pent-2-enoyl)-4,5,6,7-tetrahydrothieno[2,3-c]pyridine-2-carbonitrile]: 1.01 µM; for `CCn1cc(-c2cc(NC(=O)NC)ccc2C2CN(C(=O)/C=C/CN(C)C)Cc3sc(C#N)cc32)c(C(F)(F)F)n1` (stereo not drawn) [Example 195, (E)-1-(4-(2-Cyano-6-(4-(dimethylamino)but-2-enoyl)-4,5,6,7-tetrahydrothieno[2,3-c]pyridin-4-yl)-3-(1-ethyl-3-(trifluoromethyl)-1 H-pyrazol-4-yl)phenyl)-3-methylurea]: 11.3 µM. The same measure for `CN(C)C/C=C/C(=O)N1Cc2sc(C#N)cc2[C@H](c2ccccc2-c2cn(CCC(=O)O)nc2C(F)(F)F)C1` [Example 173, (S, E)-3-(4-(2-(2-Cyano-6-(4-(dimethylamino)but-2-enoyl)-4,5,6,7-tetrahydrothieno[2,3-c]pyridin-4-yl)phenyl)-3-(trifluoromethyl)-1H-pyrazol-1-yl)propanoic acid]: 17.3 µM. The same measure for `CCn1cc(-c2ccccc2[C@@H]2CN(C(=O)/C=C/CN3CCC[C@H]3C(=O)O)Cc3sc(C#N)cc32)c(C(F)(F)F)n1` [Example 6, ((E)-4-((S)-2-cyano-4-(2-(1-ethyl-3-(trifluoromethyl)-1 H-pyrazol-4-yl)phenyl)-4,7-dihydrothieno[2,3-c]pyridin-6(5H)-yl)-4-oxobut-2-en-1-yl)proline]: 7.43 µM. Consider `CCn1cc(-c2c(F)cccc2[C@@H]2CN(C(=O)/C=C/CN[C@@H]3CCOC3)Cc3sc(C#N)cc32)c(C(F)(F)F)n1` [Example 55, (S)-4-(2-(1-ethyl-3-(trifluoromethyl)-1 H-pyrazol-4-yl)-3-fluorophenyl)-6-((E)-4-(((R)-tetrahydrofuran-3-yl)amino)but-2-enoyl)-4,5,6,7-tetrahydrothieno[2,3-c]pyridine-2-carbonitrile], for which the IC50 amounted to 1.66 µM. The same measure for `C=C(CO)C(=O)N1Cc2sc(C#N)cc2[C@H](c2ccccc2-c2cn(CC)nc2C(F)(F)F)C1` [Example 62, (S)-4-(2-(1-Ethyl-3-(trifluoromethyl)-1 H pyrazol-4-yl)phenyl)-6-(2-(hydroxymethyl)acryloyl)-4,5,6,7-tetrahydrothieno[2,3-c]pyridine-2-carbonitrile]: over 25 µM.

Values taken from patent US20240360148A1 (SUVALENT THERAPEUTICS, INC., priority 2021, published 2024).
